Assay results as given in ChEMBL document CHEMBL1124825 (J Med Chem, 1990).

Legend:
[1] = test system: L1210; assay: Inhibitory activity for the growth inhibition of L1210 cell line.; assay type: functional, cell-based; settings: Mus musculus
[2] = Inhibitory activity for Lactobacillus casei Glycinamide ribotide formyltransferase; parameters: species or system Lacticaseibacillus casei
[3] = Inhibitory activity for L1210 Glycinamide ribotide formyltransferase; parameters: species or system Mus musculus
[4] = target: T1, Dihydrofolate reductase (Mus musculus, UniProt P00375); assay: Inhibitory activity of Dihydrofolate reductase derived from L1210 cell line.; assay type: cell-based
T1 sequence (P00375 whole entry): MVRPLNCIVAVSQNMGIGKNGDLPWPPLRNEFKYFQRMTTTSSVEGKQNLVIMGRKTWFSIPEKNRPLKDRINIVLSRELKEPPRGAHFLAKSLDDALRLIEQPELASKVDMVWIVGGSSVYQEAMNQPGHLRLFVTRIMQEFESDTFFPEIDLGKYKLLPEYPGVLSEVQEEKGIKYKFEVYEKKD

[5] = Relative influx was determined by taking the ratio vs MTX in L1210 cell line; assay type: functional

CCC(CC1CNc2nc(N)nc(O)c2C1)c1ccc(C(=O)NC(CCC(=O)O)C(=O)O)cc1 (stereo unspecified)
IC50 [1]: 34.6 nM
IC50 [2]: 80 nM
IC50 [3]: 660 nM
Ki [4]: > 1000 nM
Relative influx [5]: 1.36

CC(CC1CNc2nc(N)nc(O)c2C1)c1ccc(C(=O)NC(CCC(=O)O)C(=O)O)cc1 (stereo unspecified)
IC50 [1]: 50.3 nM
IC50 [2]: 17 nM
IC50 [3]: 1500 nM
Ki [4]: > 1000 nM
Relative influx [5]: 1.72

Nc1nc(O)c2c(n1)CCC(CNc1ccc(C(=O)NC(CCC(=O)O)C(=O)O)cc1)C2 (stereo unspecified)
IC50 [1]: 57.2 nM
IC50 [2]: 10 nM
IC50 [3]: 500 nM
Ki [4]: > 1000 nM
Relative influx [5]: 1.54

CCC(Cc1cnc2nc(N)nc(N)c2c1)c1ccc(C(=O)NC(CCC(=O)O)C(=O)O)cc1 (stereo unspecified)
IC50 [1]: 12.1 nM
Ki [4]: 0.013 nM
Relative influx [5]: 1.32

CC(Cc1cnc2nc(N)nc(N)c2c1)c1ccc(C(=O)NC(CCC(=O)O)C(=O)O)cc1 (stereo unspecified)
IC50 [1]: 23.9 nM
Ki [4]: 0.007 nM
Relative influx [5]: 1.43
